Patent publication US12662491B2 (Redona Therapeutics, Inc., priority 2020, dated 2026)
Where two headings read alike, the source gives them in different places.

Target: T1, Zcchc11 enzyme (Homo sapiens, UniProt Q5TAX3)
T1 construct: made in house; host or cells: HEK293 cells (Zcchc11); E. coli Rosetta II (LIN28A)
T1 sequence (Q5TAX3 212-1420): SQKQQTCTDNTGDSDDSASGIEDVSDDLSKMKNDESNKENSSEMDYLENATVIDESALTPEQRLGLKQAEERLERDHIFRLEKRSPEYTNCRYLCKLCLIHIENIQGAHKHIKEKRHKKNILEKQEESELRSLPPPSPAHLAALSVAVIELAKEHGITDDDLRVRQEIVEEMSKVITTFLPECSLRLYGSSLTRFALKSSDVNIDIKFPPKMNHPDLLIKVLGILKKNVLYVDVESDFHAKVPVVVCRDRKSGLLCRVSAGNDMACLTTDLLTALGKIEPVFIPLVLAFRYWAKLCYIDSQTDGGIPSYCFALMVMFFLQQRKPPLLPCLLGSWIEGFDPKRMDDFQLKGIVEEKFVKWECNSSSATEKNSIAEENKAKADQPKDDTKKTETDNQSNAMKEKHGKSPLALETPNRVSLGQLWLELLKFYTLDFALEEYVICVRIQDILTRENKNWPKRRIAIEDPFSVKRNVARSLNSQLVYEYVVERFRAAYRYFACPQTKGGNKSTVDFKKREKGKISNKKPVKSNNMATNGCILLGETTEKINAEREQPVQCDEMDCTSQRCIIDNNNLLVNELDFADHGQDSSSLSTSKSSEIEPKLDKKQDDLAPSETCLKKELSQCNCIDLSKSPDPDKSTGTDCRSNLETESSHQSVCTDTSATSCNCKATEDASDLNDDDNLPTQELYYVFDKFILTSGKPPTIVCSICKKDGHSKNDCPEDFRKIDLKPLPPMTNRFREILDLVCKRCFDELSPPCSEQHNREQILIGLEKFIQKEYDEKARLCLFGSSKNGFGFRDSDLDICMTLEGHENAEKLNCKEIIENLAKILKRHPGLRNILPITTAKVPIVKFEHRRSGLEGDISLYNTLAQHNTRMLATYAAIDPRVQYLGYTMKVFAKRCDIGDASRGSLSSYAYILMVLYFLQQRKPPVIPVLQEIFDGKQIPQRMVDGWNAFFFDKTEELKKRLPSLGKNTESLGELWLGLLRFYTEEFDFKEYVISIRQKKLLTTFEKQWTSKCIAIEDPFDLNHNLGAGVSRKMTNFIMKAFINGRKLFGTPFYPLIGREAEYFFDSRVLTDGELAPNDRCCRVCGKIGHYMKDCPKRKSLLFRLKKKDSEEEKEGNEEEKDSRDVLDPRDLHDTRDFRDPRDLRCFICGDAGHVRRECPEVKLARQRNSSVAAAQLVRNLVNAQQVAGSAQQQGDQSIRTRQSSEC
Assay: TUTase assay (Zcchc11 assay, Lin28a-dependent polyuridylation of pre-let-7)
Format: biochemical
Conditions: read-out: Potency Lin28a-dep Z11 IC50
Outline: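 LIN28A (10 nM) in pH 7.3 HEPES/KCl/MgCl2/DTT buffer was mixed with serially diluted compound, then 0.2 nM truncated human Zcchc11 and 2 nM labeled pre-let-7 were added for 30 min at room temperature. UTP (5 uM) and quench probe (4 nM) then started the reaction. Linear early rates gave IC50 values.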

[1] = Lin28a-dependent Zcchc11 (Z11) TUTase assay
[2] = Lin28a-dependent Zcchc11 (Z11) TUTase activity

Row | IC50 [1] | IC50 [2] | also measured | SMILES
1 | ≤ 1000 nM |  |  | CN(C)C1CN(c2ccc(-n3cc(C(=O)O)c(=O)c4cc(Cl)c(N5CC(c6cccnc6)C[C@@H]5COc5ncccc5Cl)cc43)cn2)C1 (stereo partly drawn) [Example 599, 6-chloro-7-((2R)-2-(((3-chloropyridin-2-yl)oxy)methyl)-4-(pyridin-3-yl)pyrrolidin-1-yl)-1-(6-(3-(dimethylamino)azetidin-1-yl)pyridin-3-yl)-4-oxo-1,4-dihydroquinoline-3-carboxylic acid]
2 |  | ≤ 1000 nM |  | COc1ccc(Cl)c(OC[C@H]2C[C@H]3C[C@H]3N2c2cc3c(cc2F)c(=O)c(C(=O)O)cn3-c2ccc(N3CC(N(C)C)C3)nc2)n1 (racemic) [Compound 234, Rac-7-((1R,3R,5R)-3-(((3-chloro-6-methoxy-pyridin-2-yl)oxy)methyl)-2-azabicyclo [3.1.0]hexan-2-yl)-1-(6-(3-(dimethyl-amino)azetidin-1-yl)pyridin-3-yl)-6-fluoro-4-oxo-1,4-dihydro-quinoline-3-carboxylic acid]
3 |  | ≤ 1000 nM |  | Cn1cc(-n2cc(C(=O)O)c(=O)c3cc(Cl)c(N4CCC[C@@H]4COc4ncccc4Cl)nc32)cn1 (racemic) [Compound 191, rac-(R)-6-chloro-7-(2-(((3-chloropyridin-2-yl)oxy)methyl)pyrrolidin-1-yl)-1-(1-methyl-1H-pyrazol-4-yl)-4-oxo-1,4-dihydro-1,8-naphthyridine-3-carboxylic acid]
4 |  | ≤ 1000 nM |  | CN(C)C1CN(c2ccc(-n3cc(C(=O)O)c(=O)c4cc(Cl)c(N5CCC[C@@H]5COc5nnccc5Cl)cc43)cn2)C1 [Compound 173, (R)-6-chloro-7-(2-(((4-chloro-pyridazin-3-yl)oxy)methyl)pyrrolidin-1-yl)-1-(6-(3-(dimethyl-amino)azetidin-1-yl)pyridin-3-yl)-4-oxo-1,4-dihydro-quinoline-3-carboxylic acid]
5 | ≤ 1000 nM |  |  | CN(C)C1CN(c2ccc(-n3cc(C(=O)O)c(=O)c4cc(Cl)c(N5C[C@H](O)C[C@@H]5COc5ncccc5Cl)cc43)cn2)C1 [Example 602, 6-chloro-7-((2R,4R)-2-(((3-chloroypridin-2-yl)oxy)methyl)-4-hydroxypyrrolidin-1-yl)-1-(6-(3-(dimethylamino)azetidin-1-yl)pyridin-3-yl)-4-oxo-1,4-dihydroquinoline-3-carboxylic acid]
6 | ≤ 1000 nM |  |  | CN1CCn2nc(-n3cc(C(=O)O)c(=O)c4cc(C#N)c(N5CCC[C@@H]5COc5ncccc5Cl)cc43)cc2C1 [Example 561, (R)-7-(2-(((3-chloropyridin-2-yl)oxy)methyl)pyrrolidin-1-yl)-6-cyano-1-(5-methyl-4,5,6,7-tetrahydropyrazolo [1,5-a]pyrazin-2-yl)-4-oxo-1,4-dihydroquinoline-3-carboxylic acid]
7 |  |  | IC50 (LIN28A 10 nM, Zcchc11 0.2 nM, 5′-fluorescein pre-let-7 miRNA 2 nM, UTP 5 uM, room temperature, 30 minutes pre-incubation): ≤ 1000 nM | CCS(=O)(=O)Nc1ccc(-n2cc(C(=O)O)c(=O)c3cc(Cl)c(N4CCC[C@@H]4COc4ncccc4Cl)cc32)cc1 [Example 31, (R)-6-chloro-7-(2-(((3-chloropyridin-2-yl)oxy)methyl)pyrrolidin-1-yl)-1-(4-(ethylsulfonamido)phenyl)-4-oxo-1,4-dihydroquinoline-3-carboxylic acid]
8 | 10000 to 50000 nM |  |  | O=C(O)c1cn(-c2ccc(O)cc2C(F)(F)F)c2cc(N3CCC[C@@H]3COc3ccccn3)c(F)cc2c1=O [Example 383, (R)-6-fluoro-1-(4-hydroxy-2-(trifluoromethyl)phenyl)-4-oxo-7-(2-((pyridin-2-yloxy)methyl)pyrrolidin-1-yl)-1,4-dihydroquinoline-3-carboxylic acid]
9 | ≤ 1000 nM |  |  | Cc1cc2c(=O)c(C(=O)O)cn(-c3ccc(N4CC(N(C)C)C4)nc3)c2cc1N1C[C@@H](F)C[C@@H]1COc1ncccc1Cl [Example 467, 7-((2R,4S)-2-(((3-chloropyridin-2-yl)oxy)methyl)-4-fluoropyrrolidin-1-yl)-1-(6-(3-(dimethylamino)azetidin-1-yl)pyridin-3-yl)-6-methyl-4-oxo-1,4-dihydroquinoline-3-carboxylic acid]
10 | ≤ 1000 nM |  |  | Cc1cc2c(=O)c(C(=O)O)cn(-c3ccc(N4CC(N(C)C)C4)nc3)c2nc1N1CCC[C@@H]1COc1ncccc1Cl [Example 633, (R)-7-(2-(((3-chloropyridin-2-yl)oxy)methyl)pyrrolidin-1-yl)-1-(6-(3-(dimethylamino)azetidin-1-yl)pyridin-3-yl)-6-methyl-4-oxo-1,4-dihydro-1,8-naphthyridine-3-carboxylic acid]
11 |  | ≤ 1000 nM |  | O=C(O)c1cn(-c2cnccn2)c2cc(N3CCC[C@@H]3COc3ncccc3F)c(F)cc2c1=O (racemic) [Compound 174, rac-(R)-6-fluoro-7-(2-(((3-fluoropyridin-2-yl)oxy)methyl)pyrrolidin-1-yl)-4-oxo-1-(pyrazin-2-yl)-1,4-dihydro-quinoline-3-carboxylic acid]
12 | ≤ 1000 nM |  |  | COc1ccc(Cl)c(OC[C@H]2C[C@@H]3C[C@@H]3N2c2cc3c(cc2Cl)c(=O)c(C(=O)O)cn3-c2ccc(N3CC(N(C)C)C3)nc2)n1 [Example 661, 6-chloro-7-((1S,3R,5S)-3-(((3-chloro-6-methoxypyridin-2-yl)oxy)methyl)-2-azabicyclo[3.1.0]hexan-2-yl)-1-(6-(3-(dimethylamino)azetidin-1-yl)pyridin-3-yl)-4-oxo-1,4-dihydroquinoline-3-carboxylic acid]
13 | ≤ 1000 nM |  |  | COc1ccc(Cl)c(OC[C@H]2CC(C)CN2c2cc3c(cc2Cl)c(=O)c(C(=O)O)cn3-c2ccc(N3CC(N(C)C)C3)nc2)n1 (stereo partly drawn) [Example 625, 6-chloro-7-((2R)-2-(((3-chloro-6-methoxypyridin-2-yl)oxy)methyl)-4-methylpyrrolidin-1-yl)-1-(6-(3-(dimethylamino)azetidin-1-yl)pyridin-3-yl)-4-oxo-1,4-dihydroquinoline-3-carboxylic acid]
14 |  | ≤ 1000 nM |  | CN(C)C1CN(c2ccc(-n3cc(C(=O)O)c(=O)c4cc(Cl)c(N5CCC[C@@H]5COc5cnccc5Cl)cc43)cn2)C1 [Compound 320, 6-Chloro-7-[(2R)-2-[[(4 chloropyridin-3-yl)oxy]methyl]pyrrolidin-1-yl]-1-[6-[3-(dimethyl-amino)azetidin-1-yl]pyridin-3-yl]-4-oxoquinoline-3-carboxylic acid]
15 |  | ≤ 1000 nM |  | CN(C)C1CN(c2ccc(-n3cc(C(=O)O)c(=O)c4cc(Cl)c(N5CC(c6cn(C)cn6)C[C@@H]5COc5ncccc5Cl)cc43)cn2)C1 (stereo partly drawn) [Compound 276, 6-chloro-7-((2R)-2-(((3-chloropyridin-2-yl)oxy)methyl)-4-(1-methyl-1H-imidazol-4-yl)pyrrolidin-1-yl)-1-(6-(3-(dimethyl-amino)azetidin-1-yl)pyridin-3-yl)-4-oxo-1,4-dihydro-quinoline-3-carboxylic acid]
16 | ≤ 1000 nM |  |  | CN(C)C1CN(c2ccc(-n3cc(C(=O)O)c(=O)c4cc(Cl)c(N5CCC[C@@]5(C)COc5ncccc5Cl)cc43)cn2)C1 [Example 639, (S)-6-chloro-7-(2-(((3-chloropyridin-2-yl)oxy)methyl)-2-methylpyrrolidin-1-yl)-1-(6-(3-(dimethylamino)azetidin-1-yl)pyridin-3-yl)-4-oxo-1,4-dihydroquinoline-3-carboxylic acid]
17 |  | ≤ 1000 nM |  | CO/N=C1\CCN(c2cc3c(cc2Cl)c(=O)c(C(=O)O)cn3-c2ccc(N3CC(N(C)C)C3)nc2)C1COc1nc(OC)ccc1Cl (stereo not drawn) [Compound 233, (E)-6-chloro-7-(2-(((3-chloro-6-methoxy-pyridin-2-yl)oxy)methyl)-3-(methoxyimino)pyrrolidin-1-yl)-1-(6-(3-(dimethyl-amino)azetidin-1-yl)pyridin-3-yl)-4-oxo-1,4-dihydro-quinoline-3-carboxylic acid]
18 |  | > 50000 nM |  | CC(C)[C@H]1COC(=O)N1C[C@H]1CCCN1c1cc2c(cc1Cl)c(=O)c(C(=O)O)cn2C1(C)CC1 [Compound 140, 6-chloro-7-((R)-2-(((S)-4-isopropyl-2-oxooxazolidin-3-yl)methyl)pyrrolidin-1-yl)-1-(1-methylcyclo-propyl)-4-oxo-1,4-dihydro-quinoline-3-carboxylic acid]
